Experimental data published in paper PMC7139731, “Synthesis, Anticancer Evaluation and Structure-Activity Analysis of Novel (E)- 5-(2-Arylvinyl)-1,3,4-oxadiazol-2-yl)benzenesulfonamides” (International Journal of Molecular Sciences, 2020).
“And” between values parts separate entries of the source, which are not always exact repeats. Identical values can stand only once. Like-named read-outs stand apart in the source and are kept apart here.

Tests used:
[1] = test system: HaCaT noncancerous keratinocyte cell line; parameters: method as in PMID 28364658; conditions: MTT assay, 72 h incubation; compounds marked [18] ref 18; cited from earlier work
[2] = test system: HaCaT noncancerous keratinocyte cell line; test: MTT cell viability assay, 72 h, HaCaT; assay type: cell-based; conditions: for IC50: Homo sapiens, HaCaT, MTT assay, 72 h incubation, mean ± SD
Description: (§1) Compounds 7–36 and 47–54 were tested regarding their effect on growth of three human cancer cell lines: colon cancer HCT-116, breast cancer MCF-7 and cervical cancer HeLa, as well as on noncancerous keratinocyte cell line HaCaT. Cell viability was measured with MTT assay after 72 h of incubation with tested compound in five concentration 1–100 μM. The MTT test enables us to quantify the living cells by measuring the activity of mitochondrial enzymes, enables reducing tetrazolium dye MTT to purple formazan. In this manner, IC50—molar concentration [µM] that inhibits 50% net cell growth—was determined (Table 1 and Table 2).
(§2) All chemicals, if not stated otherwise, were obtained from Sigma-Aldrich (St. Louis, MO, USA). The MCF-7, HeLa and HaCaT cell lines were purchased from Cell Lines Services (Eppelheim, Germany), the HCT-116 cell line were obtained from ATCC (ATCC-No: CCL-247). Cells were cultured in Dulbecco’s modified Eagle’s medium (DMEM) supplemented with 10% fetal bovine serum, 2 mM glutamine, 100 units/mL penicillin, and 100 μg/mL streptomycin. Cultures were maintained in a humidified atmosphere with 5% CO2 at 37 °C in an incubator (HeraCell, Heraeus, Langenselbold, Germany). Cell viability was determined using the MTT [3-(4,5-dimethylthiazol-2-yl)-2,5-diphenyl-tetrazolium bromide] assay. Stock solutions of the studied compounds were obtained in 100% DMSO. […] Cells were seeded in 96-well plates at a density of 5 × 10^3 cells/well and treated for 72 h with the examined compounds in the concentration range 1–100 μM (1, 10, 25, 50 and 100 μM). Following treatment, MTT (0.5 mg/mL) was added to the medium and cells were further incubated for 2 h at 37 °C. Cells were lysed with DMSO and the absorbance of the formazan solution was measured at 550 nm with a plate reader Victor 1420 multilabel counter, (PerkinElmer, Inc. Waltham, MA USA). […] The experiment was performed in triplicate. Values are expressed as the mean ± SD of at least three independent experiments

[3] = test system: MCF-7 cells (breast cancer); test: MTT cell viability assay, 72 h, MCF-7; assay type: cell-based, human; conditions: for IC50: Homo sapiens, MCF7, 72 h, MTT assay, 72 h incubation, mean ± SD
Description: as §1, §2

[4] = test system: HeLa cells (cervical cancer); test: MTT cell viability assay, 72 h, HeLa; assay type: cell-based, human; conditions: for IC50: Homo sapiens, HeLa, 72 h, MTT assay, 72 h incubation, mean ± SD
Description: as §1, §2

[5] = test system: HCT-116 cells (colon cancer); test: MTT cell viability assay, 72 h, HCT-116; assay type: cell-based, human; conditions: for IC50: MTT assay, 72 h incubation, mean ± SD
Description: as §1, §2

| Structure (SMILES) | IC50 [3] [µM] | IC50 [4] [µM] | IC50 ([5]; Homo sapiens, HCT-116, 72 h) [µM] | IC50 [2] [µM] | also measured |
| --- | --- | --- | --- | --- | --- |
| NS(=O)(=O)c1cc(-c2nnc(/C=C/c3ccccc3)o2)c(Cl)cc1SCc1ccccc1 [Compound 8] |  |  |  |  | IC50 [1]: 20 ± 1 µM; activity against HaCaT compared with cancer lines ([2]; in words): at the same level as against cancer lines |
| NS(=O)(=O)c1cc(-c2nnc(/C=C/c3c(Cl)cccc3Cl)o2)c(Cl)cc1SCc1ccccc1 [Compound 14] |  |  |  |  | IC50 [1]: 160 ± 2 µM |
| NS(=O)(=O)c1cc(-c2nnc(/C=C/c3ccc(Br)cc3)o2)c(Cl)cc1SCc1ccccc1 [Compound 16] |  |  |  |  | IC50 [1]: 31 ± 1 µM |
| NS(=O)(=O)c1cc(-c2nnc(/C=C/c3ccco3)o2)c(Cl)cc1Cl [Compound 33, (E)-2,4-Dichloro-5-(5-(2-(furan-2-yl)vinyl)-1,3,4-oxadiazol-2-yl)benzenesulfonamide] | 170 ± 9 | 210 ± 8 | 33 ± 1 | 200 ± 12 |  |
| NS(=O)(=O)c1cc(-c2nnc(/C=C/c3ccco3)o2)c(Cl)cc1SCc1ccccc1 [Compound 34, (E)-2-(Benzylthio)-4-chloro-5-(5-(2-(furan-2-yl)vinyl)-1,3,4-oxadiazol-2-yl)benzenesulfonamide] | 62 ± 1 | 85 ± 3 | 27.8 ± 0.3 | 91 ± 3 |  |

Second part, led by results:

| IC50 [3] [µM] | IC50 [4] [µM] | IC50 ([5]; Homo sapiens, HCT-116, 72 h) [µM] | Structure (SMILES) | IC50 [2] [µM] | also measured |
| --- | --- | --- | --- | --- | --- |
| 115 ± 3 | 130 ± 6 | 25 ± 1 | NS(=O)(=O)c1cc(-c2nnc(/C=C/c3ccccn3)o2)c(Cl)cc1SCc1ccccc1 [Compound 28, (E)-2-(Benzylthio)-4-chloro-5-(5-(2-(pyridin-2-yl)vinyl)-1,3,4-oxadiazol-2-yl)benzenesulfonamide] | 140 ± 10 | melting point: 254 to 257 °C (dec.) |
| 66 ± 2 | 87 ± 3 | 32 ± 2 | NS(=O)(=O)c1cc(-c2nnc(/C=C/c3cccs3)o2)c(Cl)cc1SCc1ccccc1 [Compound 30, (E)-2-(Benzylthio)-4-chloro-5-(5-(2-(thiophen-2-yl)vinyl)-1,3,4-oxadiazol-2-yl)benzenesulfonamide] | 85 ± 4 |  |
|  |  | 0.5 to 4.5 | NS(=O)(=O)c1cc(-c2nnc(/C=C/c3ccc([N+](=O)[O-])s3)o2)c(Cl)cc1Cl [Compound 31, (E)-2,4-Dichloro-5-(5-(2-(5-nitrothiophen-2-yl)vinyl)-1,3,4-oxadiazol-2-yl)benzenesulfonamide] | 8.1 ± 0.5 | increase of activity towards MCF-7 on addition of nitro group (31 vs 29) ([3]; compared with compound 29): 43 times; increase of activity towards HeLa on addition of nitro group (31 vs 29) ([4]; compared with compound 29): 54 times; IC50 [5]: 0.5 µM and 0.52 µM; increase of activity towards HCT-116 on addition of nitro group (31 vs 29) ([5]; compared with compound 29): over 200 times |
| 55 ± 3 | 58 ± 2 | 17 ± 1 | NS(=O)(=O)c1cc(-c2nnc(/C=C/c3ccc([N+](=O)[O-])s3)o2)c(Cl)cc1SCc1ccccc1 [Compound 32, (E)-2-(Benzylthio)-4-chloro-5-(5-(2-(5-nitrothiophen-2-yl)vinyl)-1,3,4-oxadiazol-2-yl)benzenesulfonamide] | 57 ± 1 |  |
| 150 ± 8 | 69 ± 3 | 4 | NS(=O)(=O)c1cc(-c2nnc(/C=C/c3ccc([N+](=O)[O-])o3)o2)c(Cl)cc1SCc1ccccc1 [Compound 35, (E)-2-(Benzylthio)-4-chloro-5-(5-(2-(5-nitrofuran-2-yl)vinyl)-1,3,4-oxadiazol-2-yl)benzenesulfonamide] | 87 ± 4 | selectivity index SI (IC50 for HaCaT cell line/IC50 for cancerous cell line) ([2]; cancer line not given, active derivatives (IC50 for cancer line ≤ 25 µM)): 22; IC50 [5]: 4.1 ± 0.2 µM; times more active against HCT-116 than HaCaT ([5]; selectivity HCT-116 vs HaCaT): 22 times; times more active against HCT-116 than HeLa ([5]; selectivity HCT-116 vs HeLa): 17 times; times more active against HCT-116 than MCF-7 ([5]; selectivity HCT-116 vs MCF-7): 37 times |
| 40 ± 1 | 73 ± 3 | 39 ± 1 | NS(=O)(=O)c1cc(-c2nnc(/C=C/c3ccc[nH]3)o2)c(Cl)cc1Cl [Compound 36, (E)-5-(5-(2-(1H-Pyrrol-2-yl)vinyl)-1,3,4-oxadiazol-2-yl)-2,4-dichlorobenzenesulfonamide] | 98 ± 4 |  |
| 76 ± 4 | 25 ± 3 | 105 ± 5 | NS(=O)(=O)c1ccc(-c2nnc(/C=C/c3ccc(Cl)cc3)o2)cc1 [Compound 48, (E)-4-(5-(4-chlorostyryl)-1,3,4-oxadiazol-2-yl)benzenesulfonamide] | 95 ± 4 |  |
| 75 ± 4 | 99 ± 3 | 32 ± 2 | N#Cc1ccc(/C=C/c2nnc(-c3ccc(S(N)(=O)=O)cc3)o2)cc1 [Compound 49, (E)-4-(5-(4-Cyanostyryl)-1,3,4-oxadiazol-2-yl)benzenesulfonamide] | 98 ± 4 |  |
